Where “and” joins values, the source holds several entries; their conditions need not be identical. Equal entries are not always repeated. Values belong to the compound of their own block, whether it stands above or below them.
What was measured:
[1] = instrument: DT, single field
[2] = instrument: DT, single field, calibrated with Agilent tune mix (Agilent)
[3] = instrument: DT, stepped-field
[4] = [M+H]+; instrument: TW; calibrated with phosphatidylcholines (ESI+) and phosphatidylethanolamines (ESI-)

collision cross section (N2) ([1]; [M+NH4]+): 252.3 Å²
Compound: CC/C=C\C/C=C\C/C=C\C/C=C\C/C=C\C/C=C\CCC(=O)O[C@@H](CO)COC(=O)CCCCCCC/C=C\CCCC [DG(36:7)]

collision cross section (N2) ([2]; [M+NH4]+): 261.1 Å²
collision cross section (N2) ([1]; [M+NH4]+): 260.44 Å² and 262.5 Å²
Compound: CCCCCC/C=C\CCCCCCCC(=O)OC[C@H](CO)OC(=O)CCCCCCCCCCCCCCCCC [DG(34:1)]

collision cross section (N2) ([1]; [M+NH4]+): 337.86 Å²
Compound: CC/C=C\C/C=C\C/C=C\C/C=C\C/C=C\C/C=C\CCC(=O)OC[C@@H](COC(=O)CCCCCCC/C=C\CCCCC)OC(=O)CCCCCCCCCCCCCCCCCCCCC [TG(59:7)]

collision cross section (N2) ([1]; [M+NH4]+): 266.09 Å²
Compound: CCCCC/C=C\C/C=C\CCCCCCCCCCCC(=O)O[C@@H](CO)COC(=O)CCCCCCCCCCCCC [DG(36:2)]

collision cross section (N2) ([1]; [M+NH4]+): 256.98 Å²
Compound: CC/C=C\C/C=C\C/C=C\C/C=C\C/C=C\CCCC(=O)O[C@@H](CO)COC(=O)CCCCCCC/C=C\C/C=C\CCCC [DG(37:7)]

collision cross section (N2) ([1]; [M+Na]+): 284.2 Å²
Compound: CCCCCCCCCCCCCCCCCCCCC(=O)O[C@H](COC(=O)CCCCCCCCCCC)COP(=O)([O-])OCC[N+](C)(C)C [PC(33:0)]

collision cross section (N2) ([1]; [M+NH4]+): 338.34 Å² and 341.2 Å²
Compound: CCCCC/C=C\C/C=C\C/C=C\CCCCCCCCC(=O)OC[C@@H](COC(=O)CCCCCCC/C=C\CCCCCCC)OC(=O)CCCCCCCCC/C=C\CCCCCCCC [TG(59:5)]

collision cross section (N2) ([1]; [M+NH4]+): 266.8 Å² and 270.46 Å² and 267.84 Å²
Compound: CCCCC/C=C\C/C=C\C/C=C\C/C=C\CCCCCC(=O)O[C@@H](CO)COC(=O)CCCC/C=C\C/C=C\C/C=C\CCCCC [DG(40:7)]

collision cross section (N2) ([2]; [M+NH4]+): 313 Å²
collision cross section (N2) ([1]; [M+NH4]+): 311.73 Å² and 314.12 Å²
collision cross section (N2) ([1]; [M+Na]+): 310.81 Å² and 313.16 Å²
Compound: CCCCC/C=C\C/C=C\C/C=C\CCCCCCCCC(=O)OC[C@@H](COC(=O)CCCCCCCCCCCCC)OC(=O)CCCCCCCCCCCCC [TG(50:3)]

collision cross section (N2) ([2]; [M+NH4]+): 332.6 Å²
collision cross section (N2) ([1]; [M+Na]+): 331.24 Å²
Compound: CCCCCCC/C=C\CCCCCCCC(=O)OC[C@H](COC(=O)CCCCCCCCC/C=C\CCCCCCCCCC)OC(=O)CCCCCCC/C=C\CCCCCCC [TG(56:3)]

collision cross section (N2) ([1]; [M+NH4]+): 347.61 Å²
Compound: CCCCCCCCC/C=C\CCCCCCCC(=O)OC[C@H](COC(=O)CCCCCCCCCCCCCCCCCCC)OC(=O)CCCCCCCCCCCCCCCCCCC [TG(59:1)]

collision cross section (N2) ([2]; [M+H]+): 275 Å²
collision cross section (N2) ([2]; [M-H]-): 264.9 Å²
collision cross section (N2) ([3]; [M+K]+): 282.5 Å²
collision cross section (N2) ([3]; [M+Na]+): 281.3 Å²
Compound: CCCCC/C=C\C/C=C\CCCCCCCCCCCC(=O)O[C@H](COC(=O)CCCCCCCCCCCC)COP(=O)(O)OCCN [PE(35:2)]

collision cross section (N2) ([3]; [M+Na]+): 297.3 Å²
collision cross section (N2) [4]: 290 Å²
Compound: CC/C=C\C/C=C\C/C=C\C/C=C\C/C=C\C/C=C\CCC(=O)O[C@H](COC(=O)CCCCCCCCC/C=C\C/C=C\CCCCC)COP(=O)(O)OCCN [PE(42:8)]

collision cross section (N2) ([2]; [M+H]+): 272.7 Å²
collision cross section (N2) ([2]; [M+Na]+): 277.6 Å²
collision cross section (N2) ([2]; [M-H]-): 262 Å²
collision cross section (N2) ([3]; [M+Na]+): 278.3 Å²
collision cross section (N2) [4]: 269.9 Å²
Compound: CCCCC/C=C\C/C=C\CCCCCCCCCC(=O)O[C@H](COC(=O)CCCCCCCCCCCCC)COP(=O)(O)OCCN [PE(34:2)]

collision cross section (N2) ([2]; [M+HCOO]-): 299.5 Å²
collision cross section (N2) ([2]; [M+H]+): 302 Å²
collision cross section (N2) ([3]; [M+Na]+): 305.6 Å²
Compound: CCCCCCCCCCCCC=CC[C@@H](O)[C@H](COP(=O)([O-])OCC[N+](C)(C)C)NC(=O)CC=CCC=CCCCCCCCCCCCCCCCCC [SM(42:3)]

collision cross section (N2) ([2]; [M+NH4]+): 317.2 Å²
collision cross section (N2) ([1]; [M+Na]+): 315.77 Å² and 317.68 Å²
Compound: CCCCCCCCC/C=C\CCCCCCCC(=O)OC[C@@H](COC(=O)CCCCCCCCCCCC)OC(=O)CCCCCCC/C=C\CCCCCCCCC [TG(51:2)]

collision cross section (N2) ([1]; [M+NH4]+): 313.4 Å²
Compound: CC/C=C\C/C=C\C/C=C\C/C=C\C/C=C\C/C=C\CCC(=O)OC[C@@H](COC(=O)CCCCCCCCCCC)OC(=O)CCCCCCC/C=C\CCCCCCCC [TG(52:7)]

collision cross section (N2) ([2]; [M+H]+): 270.9 Å²
collision cross section (N2) ([2]; [M-H]-): 260.2 Å²
collision cross section (N2) ([3]; [M+Na]+): 276.1 Å²
Compound: CCCC/C=C\CCCCCCCC(=O)OC[C@H](COP(=O)(O)OCCN)OC(=O)CCCCCCCCC/C=C\C/C=C\CCCCC [PE(34:3)]

From the C3SDB collision cross section collection
